This data set is described as follows: gradient 5% acetonitrile 3 min, to 50% in 2 min, to 85% in 15 min, held 3 min, 100 µL/min. To be noted: column: Zorbax Extend-C18 2.1 x 50 mm; eluents: water / acetonitrile, 0.1% formic acid. Put shortly:
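Retention time was recorded from adduct peaks, which were picked computationally and each inspected manually. Pure standards ran in mixtures of ~100 molecules on HPLC coupled to a quadrupole time-of-flight mass spectrometer, in positive and negative ionization mode, through a Zorbax Extend-C18 column (2.1 × 50 mm, 1.8 μm) at 100 μL/min. Eluents were water and acetonitrile, each with 0.1% formic acid.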
As to `CCCC(=O)Nc1nc2ccc(CCC(=O)Nc3cccc(C(=O)OCC)c3)cc2s1`, the RP-LC retention time came to 950 s. In the case of `Cc1nc(-c2cc(S(=O)(=O)N3CCC(C(=O)NC4CCCCCC4)CC3)c(C)s2)no1` it was 707 s. In the case of `O=C(CN1CCN(c2ccc3c(c2)OCCO3)C1=O)NCc1nc(-c2ccccc2)no1` it was 745 s; in that of `CCc1nnc(-c2nnc(NC3CCCCCC3)c3ccccc23)o1`, 821 s; in that of `Cc1ccc(S(=O)(=O)N2CCCC(Cn3cnc4cccnc43)C2)cc1F` (centres undefined), 802 s. In the case of `Fc1ccc(OCc2nnc3sc(-c4cccc(F)c4)nn23)cc1` it was 947 s; in that of `Cc1cn2c(S(=O)(=O)N3CCCCC3)c(C(C)C)nc2s1`, 1020 s; in that of `COC(=O)c1ccccc1Nc1c(-c2ccc3c(c2)OCO3)nc2cnccn12`, 932 s. Consider `O=C1OC(c2ccccc2)=N/C1=C\c1ccc(N(CCCl)CCCl)cc1`, for which the RP-LC retention time was 1240 s. In the case of `CCCNC(=O)N1CCN(Cc2nc3cccnc3n2-c2ccccc2)CC1` it was 597 s.

Regarding `O=C(N[C@H]1C[C@@H]2C[C@H]1CN2C(=O)c1ccccc1Cl)c1ccccc1`, the RP-LC retention time is 757 s.

The compound `CCOC(=O)c1ccc(NC(=O)Cn2cccc(-c3nc(-c4ccc(F)cc4)no3)c2=O)cc1` returned an RP-LC retention time of 922 s. The compound `CCCNC(=O)CCC1CCN(c2cc(NCCC)ncn2)CC1` displayed an RP-LC retention time of 606 s. For the compound `Cc1cccc(N2CCN(C(=O)c3cn(-c4cc(N5CCSCC5)ncn4)cn3)CC2)c1`, the RP-LC retention time is 932 s. With `Cc1cc2ccccc2n1-c1ccc(C(N)=O)s1`, the RP-LC retention time worked out at 842 s. In the case of `Cc1nn(CC(=O)N2CCCC2)c(=O)c2nc(-c3ccccc3)sc12` it was 756 s; in that of `CCC1CCCCN1C(=O)CC1CCN(S(=O)(=O)c2ccc3c(c2)oc(=O)n3C)CC1` (centres undefined), 872 s; in that of `CCc1cccc(NC(=O)c2c(C)oc3c2C2=NC(CC)CN2C=N3)c1` (centres undefined), 698 s. `COc1ccc(-c2nnc(CC(=O)NCCC3=CCCCC3)o2)cc1` had an RP-LC retention time of 889 s. The compound `COc1cccc2c(Nc3cccc(C)c3)cc(C(=O)N3CCSCC3)nc12` had an RP-LC retention time of 696 s. In the case of `O=C(Nc1cccc2nsnc12)C1CCN(c2ccc(-c3ccc(F)cc3)nn2)CC1` it was 681 s. In turn, `Cc1ccc(CSc2nccc3c2ccn3CC(=O)NCc2ccco2)cc1` displayed an RP-LC retention time of 729 s. In the case of `Cc1csc(-c2cc(S(=O)(=O)NC3CCCC3)cn2CC(=O)N2CCCCC2)n1` it was 934 s; in that of `CCc1ccc(S(=O)(=O)c2cnc(N3CCN(C4CCCCC4)CC3)nc2N)cc1`, 706 s. In the case of `CC(=O)Nc1ccc(CC(=O)N2C[C@@H]3CCN(S(C)(=O)=O)C[C@]3(CF)C2)cc1` it was 617 s; in that of `COc1ccc(-c2ncc(C(=O)O)c(=O)[nH]2)cc1OC`, 591 s.

The compound `COc1ccccc1OCCNC(=O)C1CCN(c2nnc3ccc(Cl)cn23)CC1` displayed an RP-LC retention time of 707 s. In the case of `Cc1nn(-c2ccc(F)cc2)c(-n2cccc2)c1C(=O)N1CCN(c2ccccn2)CC1` it was 650 s; in that of `COc1ccc(N2CCN(c3nccc4ccc(C(=O)NC5CCCC5)cc34)CC2)cc1`, 734 s; in that of `CCOC(=O)c1c(C)[nH]c(C(=O)N2CCC(C(C)C(=O)NCc3ccc4c(c3)OCO4)CC2)c1C` (centres undefined), 778 s.

With `CC(C)n1c(CNC(=O)C2CC(=O)N(c3n[nH]c4ccccc34)C2)nc2ccccc21` (centres undefined), the RP-LC retention time was 614 s. In the case of `COCC(=O)N1CCCN(C2=NS(=O)(=O)C(c3ccc(F)cc3)=C2C)CC1` it was 677 s; in that of `COc1ccc(OCc2nc(Cc3nc(-c4cccc(C)c4)oc3C)no2)cc1`, 1160 s; in that of `Cc1noc(C)c1Cc1ccc(C(=O)N2CCCC2c2nc(CCOCC3CC3)no2)o1` (centres undefined), 825 s.

`O=C(NCCc1c[nH]c2ccccc12)c1ccc(N2C(=O)CCS2(=O)=O)cc1`: the RP-LC retention time was determined as 728 s. Take `CN1CCN(CCCNc2nnc(-c3nc(-c4ccc(F)cc4)no3)c3ccccc23)CC1`: the RP-LC retention time was 575 s. In the case of `Cc1ccccc1CC(=O)NC1CCN(c2ccc(F)cc2)C1=O` (centres undefined) it was 810 s; in that of `O=C(Nc1cnc(N2CCCCCC2)nc1)C1CCC1`, 778 s; in that of `COc1ccc(CNC(=O)NC2CCN(c3ccc(F)c(C)c3)C2=O)cc1` (centres undefined), 783 s.

In the case of `CCc1cc(=O)n(CC(=O)Nc2cccc(SC)c2)c(N2CCOCC2)n1`, the RP-LC retention time was determined as 846 s. In the case of `Cc1oc(-c2[nH]ncc2C(=O)N2CCOCC2)cc1S(=O)(=O)NC1CC1` it was 607 s; in that of `CCN1CCn2cc(S(=O)(=O)N3CCN(c4cccc(Cl)c4)CC3)cc2C1=O`, 872 s. Compound `O=C(c1ccc(-c2ccc3c(c2)CCN3S(=O)(=O)c2ccccc2F)cc1)N1CCOCC1` displayed an RP-LC retention time of 899 s. For `CC(C)(C(N)=O)c1ccccc1`, the RP-LC retention time was 712 s.

`O=C(CSc1ccc(N2CCCC(C(=O)NC3CC3)C2)nn1)Nc1ccc(F)cc1` (centres undefined) had an RP-LC retention time of 629 s. In the case of `O=C(Cc1csc(-c2ccccc2)n1)Nc1nc(-c2ccc(Cl)cc2)cs1` it was 1210 s; in that of `COc1ccc(-c2noc(Cc3nnc(-c4cccc(F)c4)o3)n2)cc1`, 1020 s; in that of `CC(C)CNC(=O)c1ccc2c(c1)Sc1ncccc1C(=O)N2C1CC1`, 752 s.

The compound `O=C(NC1CCCCC1)N1CCC(c2noc(-c3ccncc3)n2)C1` (centres undefined) gave an RP-LC retention time of 727 s. For `Cc1cc(C)n(-c2nc(C)c(C(=O)Nc3cccc(C(F)(F)F)c3)s2)n1`, the RP-LC retention time is 1260 s. In the case of `COc1ccc(CNC(=O)C2CCCN(c3nc4ccccc4n(Cc4ccccc4)c3=O)C2)cc1` (centres undefined) it was 1090 s.

For the compound `Cc1cc(-c2nnc(-c3ccccc3)o2)c(C)n1CC(=O)NCc1ccccc1Cl`, the RP-LC retention time is 966 s. In the case of `COc1ccc(C2CN(S(=O)(=O)c3cccc(C#N)c3)CCN2C)cc1` (centres undefined) it was 550 s; in that of `COc1ccc(C(=O)CC(SCCO)c2ccc(Cl)cc2)cc1` (centres undefined), 866 s.

For the compound `CCOC(=O)c1[nH]c(C)c(CCC(=O)N2CCC(C(=O)NCCc3ccccc3OC)CC2)c1C`, the RP-LC retention time amounted to 812 s. `CC(=O)N1CCc2nn(CC(=O)Nc3cccc(Br)c3)c(=O)cc2C1` showed an RP-LC retention time of 666 s. In turn, `Cn1c(=O)sc2cc(S(=O)(=O)N3CCC(C(=O)NCc4ccccc4)CC3)ccc21` displayed an RP-LC retention time of 851 s. In the case of `NC(=O)C1CCN(C2CC(=O)N(c3ccc(Oc4ccccc4)cc3)C2=O)CC1` (centres undefined) it was 662 s; in that of `O=C(Nc1cccn2nc(C3CCC3)nc12)c1ccc(C(F)(F)F)s1`, 1120 s.
